Results from patent publication US5350866A, “10-desacetoxytaxol derivatives” (Bristol-Myers Squibb Company, priority 1992, dated 1994).

How the values were obtained:
[1] = system: HCT-116 human colon carcinoma cells; test: In vitro cytotoxicity (XTT assay), HCT-116; details: HCT-116, 72 h, read-out: IC50 HCT-116
[2] = system: HCT-116/VM46 human colon carcinoma cells; test: In vitro cytotoxicity (XTT assay), teniposide-resistant, multidrug resistance phenotype HCT-116/VM46

SMILES | IC50 [1] | IC50 ([2]; Homo sapiens, HCT-116/VM46, 72 h, read-out: IC50 HCT-116/VM46) | fold resistance relative to HCT116 cells ([2]; value in parenthesis, HCT-116/VM46 relative to HCT116 cells, 4320 min)
CC(=O)O[C@@]12CO[C@@H]1C[C@H](O)[C@@]1(C)C(=O)CC3=C(C)[C@@H](OC(=O)[C@H](O)[C@@H](NC(=O)c4ccccc4)c4ccccc4)C[C@@](O)([C@@H](OC(=O)c4ccccc4)[C@H]21)C3(C)C [10-Desacetoxytaxol] | 8 nM |  | 
CC(=O)O[C@H]1C(=O)[C@@]2(C)[C@H]([C@H](OC(=O)c3ccccc3)[C@]3(O)C[C@H](OC(=O)[C@H](O)[C@@H](NC(=O)c4ccccc4)c4ccccc4)C(C)=C1C3(C)C)[C@]1(OC(C)=O)CO[C@@H]1C[C@@H]2O [Taxol] | 4 nM | 440 nM | 124
